Measured values published in ChEMBL document CHEMBL4665834 (J Med Chem, 2020).
pIC50: −log10 of the molar value. Converted amounts (≈) assume the structure as drawn.

What was measured:
[1] = Solubility of compound in water using crystalline form of sample; type: physicochemical
[2] = Relative oral bioavailability in Wistar rat at 1 to 3 mg/kg administered via gavage in 99.5% water, 0.5% Tylose and TRIS salt formulation by LC-MS/MS analysis; type: ADME, organism-based; conditions: in vivo, dose 1-3 mg/kg
Homo sapiens [3] = species: Homo sapiens; assay: Selectivity ratio of IC50 for displacement of [3H]prostaglandin E2 from full-length recombinant human EP4 receptor expressed in Chem-1 cell membranes to IC50 for displacement of [3H]PGF2alpha from full-length recombinant human FP receptor expressed in HEK293 cell membranes
[4] = Lipophilicity, log D of compound at pH 7.5 by HPLC analysis; conditions: buffer
[5] = Maximum oral bioavailability in rat hepatocytes based well stirred liver model at 1 uM measured after 2 to 90 mins by LC-MS/MS analysis; type: ADME, Hepatocyte; conditions: time 2-90 min, read-out: Fmax
[6] = target: Prostaglandin F2-alpha receptor (Homo sapiens, UniProt P43088); assay: Antagonist activity at human FPR expressed in human Chem-1 cells assessed as inhibition of PGF2alpha-induced calcium flux preincubated for 10 mins followed by PGF2alpha stimulation and measured for 120 secs by fluo-8 AM dye based fluorescence assay; type: functional, cell-based
[7] = Efflux ratio of apparent permeability across basolateral to apical side over apical to basolateral side in human Caco-2 cells measured after 2 hrs by HPLC analysis; type: ADME, cell-based
[8] = Clearance in Wistar rat at 0.3 to 1 mg/kg, iv administered as bolus dose by LC-MS/MS analysis; type: ADME, organism-based; conditions: in vivo, dose 0.3-1 mg/kg
Homo sapiens [9] = species: Homo sapiens; assay: Selectivity ratio of IC50 for displacement of [3H]prostaglandin E2 from full-length recombinant human EP2 receptor expressed in HEK293 cell membranes to IC50 for displacement of [3H]PGF2alpha from full-length recombinant human FP receptor expressed in HEK293 cell membranes
Homo sapiens [10] = species: Homo sapiens; assay: Selectivity ratio of IC50 for displacement of [3H]prostaglandin E2 from full-length recombinant human EP3 receptor expressed in HEK293 cell membranes to IC50 for displacement of [3H]PGF2alpha from full-length recombinant human FP receptor expressed in HEK293 cell membranes
Homo sapiens [11] = species: Homo sapiens; assay: Selectivity ratio of IC50 for displacement of [3H]PGD2 from full-length recombinant human IP receptor expressed in HEK293 cell membranes to IC50 for displacement of [3H]PGF2alpha from full-length recombinant human FP receptor expressed in HEK293 cell membranes
Homo sapiens [12] = species: Homo sapiens; assay: Selectivity ratio of IC50 for displacement of [3H]prostaglandin E2 from full-length recombinant human EP1 receptor expressed in HEK293 cell membranes to IC50 for displacement of [3H]PGF2alpha from full-length recombinant human FP receptor expressed in HEK293 cell membranes
[13] = Clearance in Wistar rat at 0.3 to 1 mg/kg, iv administered as bolus dose or 15 mins infusion by LC-MS/MS analysis; type: ADME, organism-based; conditions: Wistar, in vivo, dose 0.3-1 mg/kg
Homo sapiens [14] = species: Homo sapiens; assay: Selectivity ratio of IC50 for displacement of [3H]PGD2 from full-length recombinant human DP1 receptor expressed in Chem-1 cell membranes to IC50 for displacement of [3H]PGF2alpha from full-length recombinant human FP receptor expressed in HEK293 cell membranes
Cytochrome P450 3A4 = Cytochrome P450 3A4 (Homo sapiens, UniProt P08684); assay: Inhibition of CYP3A4 in human liver microsomes using midazolam as substrate incubated for 10 mins in presence of NADPH generating system by LC-MS/MS analysis
[15] = Solubility of compound at pH 1 to 7 using crystalline form of sample; type: physicochemical
[16] = Half life in Wistar rat at 0.3 to 1 mg/kg, iv administered as bolus dose by LC-MS/MS analysis; type: ADME, organism-based; conditions: in vivo, dose 0.3-1 mg/kg
[17] = Oral bioavailability in Wistar rat at 1 to 3 mg/kg administered via gavage using EtOH/PEG400/H2O 10/40/50 formulation by LC-MS/MS analysis; type: ADME, organism-based; conditions: in vivo, dose 1-3 mg/kg
[18] = Protein binding in pooled human plasma assessed as unbound fraction incubated for 6 hrs by LC-MS/MS analysis based equilibrium dialysis method; type: ADME, cell-free
[19] = Apparent permeability in human Caco-2 cells measured after 2 hrs by HPLC analysis; type: ADME, cell-based
[20] = Relative oral bioavailability in Wistar rat at 1 to 3 mg/kg administered via gavage using crystalline form of sample in sodium salt formulation by LC-MS/MS analysis; type: ADME, organism-based; conditions: in vivo, dose 1-3 mg/kg

Sequence of Prostaglandin F2-alpha receptor (P43088 whole entry): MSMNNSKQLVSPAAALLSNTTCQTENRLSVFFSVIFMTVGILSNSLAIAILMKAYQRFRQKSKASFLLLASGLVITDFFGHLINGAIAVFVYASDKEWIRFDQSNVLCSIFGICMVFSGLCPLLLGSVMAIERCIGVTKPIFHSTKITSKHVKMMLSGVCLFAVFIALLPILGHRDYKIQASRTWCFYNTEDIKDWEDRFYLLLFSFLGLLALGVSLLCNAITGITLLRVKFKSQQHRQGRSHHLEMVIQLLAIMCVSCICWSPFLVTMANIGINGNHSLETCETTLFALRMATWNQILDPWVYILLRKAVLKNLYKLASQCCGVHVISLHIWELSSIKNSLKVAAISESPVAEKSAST
Sequence of Cytochrome P450 3A4 (P08684 whole entry): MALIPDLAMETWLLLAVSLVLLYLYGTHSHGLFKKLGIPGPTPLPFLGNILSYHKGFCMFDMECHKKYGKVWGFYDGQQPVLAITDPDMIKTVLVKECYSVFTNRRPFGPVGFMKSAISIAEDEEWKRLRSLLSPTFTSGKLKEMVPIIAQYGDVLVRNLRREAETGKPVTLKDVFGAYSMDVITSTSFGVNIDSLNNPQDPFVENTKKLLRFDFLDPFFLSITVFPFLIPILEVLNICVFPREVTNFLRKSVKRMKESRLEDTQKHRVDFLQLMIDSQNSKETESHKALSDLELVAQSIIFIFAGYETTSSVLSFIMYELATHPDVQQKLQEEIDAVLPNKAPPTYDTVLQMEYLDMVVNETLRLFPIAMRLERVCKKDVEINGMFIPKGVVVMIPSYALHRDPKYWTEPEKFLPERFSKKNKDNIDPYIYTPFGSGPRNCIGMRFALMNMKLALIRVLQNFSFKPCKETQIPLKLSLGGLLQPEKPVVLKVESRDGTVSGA

Row | logD [4] | pIC50 [6] | clearance [13] [mL/min/kg] | pIC50 (Cytochrome P450 3A4) | SMILES | Ratio IC50 (Homo sapiens [3]) | Ratio IC50 (Homo sapiens [9]) | Ratio IC50 (Homo sapiens [10]) | Ratio IC50 (Homo sapiens [11]) | Ratio IC50 (Homo sapiens [12]) | Ratio IC50 (Homo sapiens [14]) | also measured
1 | – | – | – | – | Cc1c(N2CCCC2)nc2ccc(Br)cc2c1C(=O)NC[C@H](CCC(=O)O)c1ccccc1Cl.Cl | – | – | – | – | – | – | solubility [1]: 2300 µg/mL
2 | – | – | – | – | Cc1c(-c2ccccc2)nc2ccc(Br)cc2c1C(=O)Nc1ccc(C(=O)O)cc1F.NC(CO)(CO)CO | – | – | – | – | – | – | bioavailability [2]: 37%
3 | 2.6 | 5.47 | – | – | Cc1c(-c2ccccc2)nc2ccc(Br)cc2c1C(=O)NCCc1cccnc1 | > 7.7 | – | – | – | – | – | Fh at 1 µM [5]: 4%
4 | – | 8.28 | – | – | Cc1c(-c2ccccc2)nc2ccc(Br)cc2c1C(=O)Nc1ccc(-c2nnn[nH]2)cc1F | 50 | – | – | – | – | – | efflux ratio at 2 h [7]: 10; clearance [8]: 50 mL/min/kg
5 | 2 | – | 21.7 | < 4.70 | Cc1c(-c2ccccc2)nc2ccc(I)cc2c1C(=O)Nc1ccc(C(=O)O)cc1F | 15 | > 86 | > 86 | > 86 | > 86 | > 86 | –
6 | 1.9 | 7.57 | 16.7 | < 4.70 | Cc1c(-c2ccccc2)nc2ccc(Br)cc2c1C(=O)Nc1ccc(C(=O)O)cc1F | – | – | – | – | – | – | solubility [15]: 1 µg/mL (≈ 2.09 µM); half-life [16]: 3.1 h; bioavailability [17]: 100%; fraction unbound at 6 h [18]: 0.016
7 | 2.1 | – | 20 | < 4.70 | Cc1c(-c2ccccc2)nc2ccc(C(C)(C)C)cc2c1C(=O)Nc1ccc(C(=O)O)cc1F | 170 | > 87 | > 87 | > 87 | > 87 | > 87 | –
8 | 1.6 | 7.40 | 100 | < 4.70 | Cc1c(C(=O)Nc2ccc(C(=O)O)cc2F)c2cc(Br)ccc2c(=O)n1-c1ccccc1 | 170 | > 1600 | > 1600 | > 1600 | > 1600 | > 1600 | efflux ratio at 2 h [7]: 7.4; Papp at 2 h [19]: 3.9 ×10⁻⁶ cm/s
9 | – | – | – | – | Cc1c(-c2ccccc2)nc2ccc(Br)cc2c1C(=O)Nc1ccc(C(=O)[O-])cc1F.[Na+] | – | – | – | – | – | – | bioavailability [20]: 29%
10 | – | – | – | – | Cc1c(-c2ccccc2)nc2ccc(Br)cc2c1C(=O)NC12CCC(C(=O)O)(CC1)CC2.NC(CO)(CO)CO | – | – | – | – | – | – | bioavailability [2]: 79%
11 | 1.9 | 6.82 | 23.3 | < 4.70 | Cc1c(-c2ccccc2)nc2ccc(Br)cc2c1C(=O)Nc1ccc(C(=O)O)cc1 | 10 | > 110 | > 110 | > 110 | > 110 | > 110 | –
